Test results as given in paper PMC7402526, “An in vitro quantitative systems pharmacology approach for deconvolving mechanisms of drug-induced, multilineage cytopenias” (PLoS Computational Biology, 2020).

Tests used:
Assay type in all cases: cell-based, human
[1] = test system: hematopoietic stem cells (HSCs); test: Multi-lineage toxicity assay (MLTA), HSCs: concentration-response and QSP model fit; details: Homo sapiens, Hematopoietic stem cell; for Emax: 144 h, parameter from QSP model fitting, read-out: Emax_drug_HSC; for EC50: QSP model parameter, sheet EC50_parameters, HSCs
Experimental: (§1) A custom optimized cytokine cocktail was developed using commercially available cytokines (Peprotech, New Jersey) to facilitate simultaneous multi-lineage differentiation and self-renewal of freeze-thawed primary human bone marrow-derived CD34+ cells in SFEM II media (cells and media from StemCell Technologies, Vancouver). Cultures were carried out in ultra-low attachment 96-well plates (Corning, New York) with test article added on day 0 and cultured at 37°C, 85% relative humidity, and 5% CO2 for six days before interrogating drug impact via 17-parameter flow cytometry.
(§2) The flow cytometry panel used to define hematopoietic subsets was composed of CD34-PECy7, CD90-PECY5, CD38-AF488, CD371-PE, CD45Ra-BV421, CD14-BV605, CD42b-AF647, CD10-PEDazzle594, CD235a-PerCPCy5.5 (BioLegend, California), CD15-BUV395, CD41a-APCH7, CD71-BV786 (BD Biosciences, California), and DAPI for dead cell exclusion (ThermoFisher, California). In short, Day 6 cells were harvested, FcR-blocked (FcR binding inhibitor, ThermoFisher), surface-stained, then analyzed in a buffer containing TruCount Control Beads using a BD LSR Fortessa SORP fitted with a high-throughput sampler (BD Biosciences, California). Data was analyzed in Diva 6.0.2 and exported to CSV where after all cell data was transformed to cell per mL then normalized on a per-donor basis to untreated control wells to determine drug impact.
(§3) Donor material was collected and cultured as described above. The number of replicate donor samples per drug ranged from 2–7 and varied per drug (S1 Table). Drug treatment was added at time 0 and cells were maintained in culture for 6 days. Concentrations tested for each drug compound are contained in S1 Table. Concentrations were selected to span a range that is clinically useful. Following treatment, cell populations were measured using flow cytometry. We extracted cell counts from flow cytometry data, normalized to bead counts, and corrected for well volume.
(§4) Each well was normalized to the average of six vehicle control wells. For drugs that were tested across multiple runs of the assay, vehicle-normalized donor data were pooled, and we used the average of these pooled data for further modeling. Normalized data used as model inputs are included in S1 Table.
(§5) We implemented drug effects using an Emax model for the drug’s effect on each cell type. The 13 maximum effect parameters (EmaxT,C) are unitless and can vary between 0 and 2 and where a subscript, C, represents one of the previously described 13 cell types. We adapted a traditional Emax model using the equations below. We interpreted EmaxT values less than or equal to one as anti-proliferative, and EmaxT values greater than one as indicating a cell-killing mechanism in addition to anti-proliferation. The relationships for these effects are included in the model using the following equations. Eq 2 describes the drug anti-proliferative effect in the net proliferation rate for a given cell type. Eq 3 describes the cell-killing EmaxCK effect.
(§6) Towards the estimation of mechanistic parameters, we considered different formulations: (a) weighting the objective value to prioritize fitting dead cells and (b) using regularization methodology to encourage a parsimonious solution. We assessed the contributions of these formulations using mean-squared error and goodness of fit plots for drugs with known mechanisms. […] Further, we used L1 regularization to penalize parameters […] to help identify a parsimonious set of parameters to explain drug effects.

[2] = test system: multi-potent progenitors (MPPs); test: MLTA, MPPs: concentration-response and QSP model fit; details: Homo sapiens; for Emax: 144 h, parameter from QSP model fitting, read-out: Emax_drug_MPP; for EC50: QSP model parameter, sheet EC50_parameters, MPPs
Experimental: as §1, §2, §3, §4, §5, §6

[3] = test system: granulocyte-macrophage progenitor (GMPs); test: MLTA, GMPs: concentration-response and QSP model fit; details: Homo sapiens; QSP model parameter, sheet EC50_parameters; GMPs
Experimental: as §1, §2, §3, §4, §5, §6

[4] = test system: granulocyte progenitor (Gran-lin prog); test: MLTA, GranP: concentration-response and QSP model fit; details: Homo sapiens; for Emax: 144 h, parameter from QSP model fitting, read-out: Emax_drug_GranP; for EC50: QSP model parameter, sheet EC50_parameters, GranP, read-out: EC50GranP
Experimental: as §1, §2, §3, §4, §5, §6

granulocytes (Gran-lin) = test: MLTA, Gran: concentration-response and QSP model fit; details: Homo sapiens; for Emax: 144 h, parameter from QSP model fitting, read-out: Emax_drug_Gran; for EC50: QSP model parameter, sheet EC50_parameters, Gran
Experimental: as §1, §2, §3, §4, §5, §6

[5] = test system: monocyte progenitors (monocyte prog); test: MLTA, MonoP: concentration-response and QSP model fit; details: Homo sapiens, Monocyte; for Emax: 144 h, parameter from QSP model fitting, read-out: Emax_drug_MonoP; for EC50: QSP model parameter, sheet EC50_parameters, MonoP, read-out: EC50MonoP
Experimental: as §1, §2, §3, §4, §5, §6

monocytes (monocyte-lin) = test: MLTA, Mono: concentration-response and QSP model fit; details: Homo sapiens, Monocyte; for Emax: 144 h, parameter from QSP model fitting, read-out: Emax_drug_Mono; for EC50: QSP model parameter, sheet EC50_parameters, Mono
Experimental: as §1, §2, §3, §4, §5, §6

[6] = test system: neutrophils (neutrophil-lin); test: MLTA, Neut: concentration-response and QSP model fit; details: Homo sapiens, Neutrophil; for Emax: 144 h, parameter from QSP model fitting, read-out: Emax_drug_Neut; for EC50: QSP model parameter, sheet EC50_parameters, Neut
Experimental: as §1, §2, §3, §4, §5, §6

[7] = test system: early erythroid cells (Eryth I); test: MLTA, ErythI: concentration-response and QSP model fit; details: Homo sapiens; for Emax: 144 h, parameter from QSP model fitting, read-out: Emax_drug_ErythroidI; for EC50: QSP model parameter, sheet EC50_parameters, Erythroid I, read-out: EC50ErythroidI
Experimental: as §1, §2, §3, §4, §5, §6

[8] = test system: late erythroid cells (Eryth II); test: MLTA, ErythII: concentration-response and QSP model fit; details: Homo sapiens; for Emax: 144 h, parameter from QSP model fitting, read-out: Emax_drug_ErythroidII; for EC50: QSP model parameter, sheet EC50_parameters, Erythroid II, read-out: EC50ErythroidII
Experimental: as §1, §2, §3, §4, §5, §6

MK cells (MK-lin) = test: MLTA, MK: concentration-response and QSP model fit; details: Homo sapiens; for Emax: 144 h, parameter from QSP model fitting, read-out: Emax_drug_MK; for EC50: QSP model parameter, sheet EC50_parameters, MK
Experimental: as §1, §2, §3, §4, §5, §6

[9] = test system: lymphocyte progenitors (LymP); test: MLTA, LymP: concentration-response and QSP model fit; details: Homo sapiens, Lymphocyte; for Emax: 144 h, parameter from QSP model fitting, read-out: Emax_drug_LymP; for EC50: QSP model parameter, sheet EC50_parameters, LymP
Experimental: as §1, §2, §3, §4, §5, §6

B cells (B-lin) = test: MLTA, B-lin: concentration-response and QSP model fit; details: Homo sapiens, B-cell; for Emax: 144 h, parameter from QSP model fitting, read-out: Emax_drug_B; for EC50: QSP model parameter, sheet EC50_parameters, B
Experimental: as §1, §2, §3, §4, §5, §6

EC50 [2] | EC50 [3] | EC50 [4] | EC50 (granulocytes (Gran-lin)) | EC50 [5] | EC50 (monocytes (monocyte-lin)) | EC50 [6] | EC50 [7] | EC50 [8] | SMILES | Emax [1] | EC50 [1] | Emax [2] | Emax [4] | Emax (granulocytes (Gran-lin)) | Emax [5] | Emax (monocytes (monocyte-lin)) | Emax [6] | Emax [7] | Emax [8] | Emax (MK cells (MK-lin)) | further results
0.0331 µM | 0.0406 µM | 0.132 µM | 0.0686 µM | 0.0709 µM | 0.0836 µM | 0.108 µM | 0.0608 µM | 0.0565 µM | CC(C)C[C@H](NC(=O)[C@H](Cc1ccccc1)NC(=O)c1cnccn1)B(O)O [Bortezomib] | 134% | 0.105 µM | 0.3% | 0.06% | 184% | 0.17% | 39% | 23.9% | 0.16% | 19.1% | 35.3% | EC50 (MK cells (MK-lin)): 0.0383 µM; Emax [9]: 0.16%; EC50 [9]: 0.112 µM; Emax (B cells (B-lin)): 89.8%; EC50 (B cells (B-lin)): 0.0362 µM
0.122 µM | 0.00337 µM | 0.00696 µM | 0.0327 µM | 0.0287 µM | 0.0632 µM | 0.00699 µM | 0.00431 µM | 0.000101 µM | Nc1ccn([C@@H]2O[C@H](CO)[C@@H](O)[C@@H]2O)c(=O)n1 [Cytarabine] | 61.3% | 0.0174 µM | 0.0181% | 104% | 0.0324% | 0.03% | 20.1% | 18.3% | 204% | 2.92% | 42.8% | EC50 (MK cells (MK-lin)): 0.00686 µM; Emax [9]: 0.032%; EC50 [9]: 0.0697 µM; Emax (B cells (B-lin)): 83.9%; EC50 (B cells (B-lin)): 0.00735 µM
0.786 µM | 3.06 µM | 0.937 µM | 3.18 µM | 1.05 µM | 0.292 µM | 2.69 µM | 0.0769 µM | 0.262 µM | Nc1cccc2c1CN(C1CCC(=O)NC1=O)C2=O (stereo not drawn) [Lenalidomide] | 1.33e-06% | 1.13 µM | 4.52e-05% | 5.98e-05% | 9.94e-05% | 3.83e-05% | 3.68e-06% | 4.07e-06% | 1.17e-05% | 1.48e-06% | 2.23e-06% | EC50 (MK cells (MK-lin)): 0.763 µM; Emax [9]: 0.0004%; EC50 [9]: 0.0267 µM; Emax (B cells (B-lin)): 1.49e-05%; EC50 (B cells (B-lin)): 1 µM
